Measured values published in US10259772B2, “Agents for maintaining undifferentiated state and promoting proliferation of stem cells” (NIPPON MENARD COSMETIC CO., LTD., priority 2014, dated 2019).

How the values were obtained:
Format in all cases: cell-based
[1] = system: human somatic stem cells; test: Evaluation of proliferation-promoting effect on stem cells (cell count); details: 72 h, final concentration 0.001%, 3 days of culture, number of cells in no addition group (control) defined as 100%, read-out: Percent cell proliferation (%)
Procedure: 3×10^5 cells of human somatic stem cells (manufactured by DS Pharma Biomedical Co., Ltd.) cultured using a human stem cell culture medium (manufactured by Toyobo Co., Ltd.) were seeded in a 6 cm dish, one or a mixture (fatty acid glycerides 2+3, fatty acid glycerides 4+5) of fatty acid glycerides 1 to 9 was added at a final concentration of 0.001%, and culture was continued for 3 days. When a mixture of two fatty acid glycerides was used, the ratio thereof was 1:1 (weight ratio).
After 3 days of culture, cells were washed three times with PBS(−), then collected with a rubber policeman, and cells were counted for each culture.
The total number of cells without addition of fatty acid glycerides was defined as control and the control was defined as 100(%). Increase or decrease (%) of the number of cells with addition of fatty acid glycerides was calculated and the stem cell proliferation-promoting effect was evaluated.

[2] = system: human somatic stem cells; test: In vitro wound healing test (scratch assay); details: final concentration 0.001%, 100 × area of scratch region at 48 hours / area at 0 hours, no addition control 61
Procedure: The scratch assay (JP Publication (Kokai) No. 2013-18756), which is generally conducted as a method for evaluating the efficacy to promote wound healing, was conducted. Specifically, 5×10^5 cells of human somatic stem cells were seeded in a 3.5 cm dish, cultured using human stem cell culture medium to confluency, and then the bottom of the dish was scratched with the end of a sterilized tip to generate a gap in the cell sheet. Subsequently, the medium was changed to a medium supplemented with one or a mixture (fatty acid glycerides 2+3, fatty acid glycerides 4+5) of fatty acid glycerides 1 to 9 at a final concentration of 0.001% and the percent recovery of the cell gap was evaluated 48 hours later. To obtain the same area under a phase contrast microscope when obtaining images before and after the recovery, a mark that can be used as a reference point is provided near the scratch.
The scratch region 48 hours later was calculated as [scratch region 48 hours later]=100× [area of scratch region at 48 hours]/[area of scratch region at 0 hours] using a commercially available image analysis software. These test results are illustrated in Table 4 below.

[3] = system: murine embryonic stem cells (murine ES cells); test: Evaluation of undifferentiated state-maintaining effect on stem cells (Nanog gene expression, real-time PCR); details: final concentration 0.001%, 3 days of culture, Nanog/Gapdh relative expression at onset of culture defined as 100% undifferentiation, no addition control 25
Excerpt: Using a medium prepared by adding fetal bovine serum (FBS, 15%, manufactured by Sigma-Aldrich Co. LLC), a nucleoside solution (100 times dilution, manufactured by Sumitomo Dainippon Pharma Co., Ltd.), a non-essential amino acids solution (100 times dilution, manufactured by Sumitomo Dainippon Pharma Co., Ltd.), a β2-mercaptoethanol solution (100 times dilution, manufactured by Sumitomo Dainippon Pharma Co., Ltd.), an L-glutamine solution (100 times dilution, manufactured by Sumitomo Dainippon Pharma Co., Ltd.), penicillin (100 units/mL, manufactured by Sigma-Aldrich Co. LLC), and streptomycin (100 μg/mL, manufactured by Sigma-Aldrich Co. LLC) to Dulbecco's Modified Eagle Medium (manufactured by Gibco), 5×10^5 cells of murine embryonic stem cells (murine ES cells: manufactured by COSMO BIO Co., Ltd.) were seeded in a 6 cm dish coated with gelatin (manufactured by Sigma-Aldrich Co. LLC), one or a mixture of fatty acid glycerides 1 to 9 was added to the medium at a final concentration of 0.001%, and culture was continued for 3 days.
After 3 days of culture, cells were collected and washed twice with PBS(−) and RNA was extracted from the cells with Trizol Reagent (Invitrogen). Extracted RNA was reverse-transcripted to cDNA using 2-STEP real-time PCR kit (Applied Biosystems) and then real-time PCR (95° C.: 15 seconds, 60° C.: 30 seconds, 40 cycles) was performed by AB17300 (Applied Biosystems) using the following primer sets to confirm the gene expression of Nanog (undifferentiation marker: Cell Res. 2007 January; 17 (1): 42-9. Review. Nanog and transcriptional networks in embryonic stem cell pluripotency. Pan G, Thomson J A.). Other operations were conducted according to a determined procedure.
The undifferentiated state-maintaining effect was evaluated as follows: the value of the relative gene expression level of Nanog (Nanog gene expression level/Gapdh gene expression level) calculated as the ratio of the Nanog mRNA expression level to the Gapdh mRNA expression level, which is an internal standard, in murine ES cells at the onset of culture was defined as 100% undifferentiation; and relative thereto, the value of the relative gene expression level of Nanog in the ES cells after 3 days of culture was calculated and evaluated.

Structure (SMILES) | activity at 0.001 % [1] [%] | Scratch region 48 hours later (%) [2] [%] | Nanog expression level (%) after 3 days of culturing [3] [%]
CCCCCC=CCC=CCCCCCCCC(=O)OCC(O)CO (stereo not drawn) [Fatty acid glyceride 1, 1-Monolinolein] | 115 | 54 | 33
CCCCCC=CCC=CCCCCCCCC(=O)OCC(O)COC(=O)CCCCCCCCCCCCCCC (stereo not drawn) [Fatty acid glyceride 2, 1-Palmitin-3-linolein] | 160 | 30 | 71
CCCCCC=CCC=CCCCCCCCC(=O)OCC(O)COC(=O)CCCCCCCC=CCC=CCCCCC (stereo not drawn) [Fatty acid glyceride 3, 1,3-Dilinolein] | 158 | 32 | 65
CCCCCC=CCC=CCCCCCCCC(=O)OCC(O)COC(=O)CCCCCCCC=CCCCCCCCC (stereo not drawn) [Fatty acid glyceride 4, 1-Olein-3-linolein] | 148 | 38 | 59
CCCCCC=CCC=CCCCCCCCC(=O)OCC(O)COC(=O)CCCCCCCCCCCCCCCCC (stereo not drawn) [Fatty acid glyceride 5, 1-Stearin-3-linolein] | 145 | 40 | 57
CCCCCCCCC=CCCCCCCCC(=O)OCC(O)COC(=O)CCCCCCCC=CCCCCCCCC (stereo not drawn) [Fatty acid glyceride 6, 1,3-Diolein] | 130 | 44 | 43
CCCCCC=CCC=CCCCCCCCC(=O)OC(CO)COC(=O)CCCCCCCCCCCCCCC (stereo not drawn) [Fatty acid glyceride 7, 1-Palmitin-2-linolein] | 129 | 45 | 41
CCCCCCCC/C=C\CCCCCCCC(=O)OCC(COC(=O)CCCCCCC/C=C\CCCCCCCC)OC(=O)CCCCCCC/C=C\CCCCCCCC [Fatty acid glyceride 8, Triolein] | 118 | 52 | 35
CCCCCC=CCC=CCCCCCCCC(=O)OCC(COC(=O)CCCCCCCC=CCC=CCCCCC)OC(=O)CCCCCCCC=CCC=CCCCCC (stereo not drawn) [Fatty acid glyceride 9, Trilinolein] | 117 | 53 | 34
CCCCCCCCCCCCCCCC(=O)O [Palmitic acid, reference compound] | 102 | 60 | 27
CCCCCCCCCCCCCCCC(=O)OCC(COC(=O)CCCCCCCCCCCCCCC)OC(=O)CCCCCCCCCCCCCCC [Tripalmitin, reference compound] | 103 | 59 | 26
